Key:
Type in all cases: in vivo
[1] = tested on: Rhipicephalus (Boophilus) microplus larvae (strain Parkhurst, resistant against synthetic pyrethroids); test: Rhipicephalus (Boophilus) microplus in-vitro contact test, larval cattle tick; details: 5 μg/cm^2 (=500 g/ha), after 48 hours, read-out: efficacy (larvae dead or moribund)
Procedure: Rhipicephalus (Boophilus) microplus—In-Vitro Contact Tests Larval Cattle Tick (Strain Parkhurst, Resistant Against Synthetic Pyrethroids)
9 mg compound is solved in 1 mL acetone and diluted with acetone to the desired concentration. 250 μL of the test solution is filled in 25 mL glass test tubes and homogeneously distributed on the inner walls by rotation and tilting on a shaking device (2 h at 30 rpm). With a compound concentration of 900 ppm, an inner surface of 44.7 cm^2 and a homogeneous distribution, a dose of 5 μg/cm^2 is achieved.
After the solvent has evaporated, each test tube is filled with 20-50 cattle tick larvae (Rhipicephalus microplus), closed with a perforated lid and incubated in a horizontal position at 85% relative humidity and 27° C. in an incubator. After 48 hours efficacy is determined. The larvae are patted on the ground of the tubes and negative geotactic behavior is recorded.
An efficacy of 100% means all larvae are dead or moribund; 0% means no larvae are dead or moribund.

[2] = tested on: adult engorged female ticks (Rhipicephalus microplus); test: Rhipicephalus (Boophilus) microplus injection test; details: 168 h, egg deposition monitored after 7 days, read-out: efficacy (infertile eggs); for pest or weed control at 20 µg/tick: 20 μg/tick injected; for pest or weed control at 4 µg/tick: 4 μg/tick injected
Procedure: Rhipicephalus (Boophilus) microplus—Iniectiontest
(§1) • Solvent: dimethyl sulfoxide
To produce a suitable preparation of active compound, 10 mg of active compound are dissolved in 0.5 mL solvent, and the concentrate is diluted with solvent to the desired concentration.
Five adult engorged female ticks (Rhipicephalus microplus) are injected with 1 μL compound solution into the abdomen. The ticks are transferred into replica plates and incubated in a climate chamber.
After 7 days egg deposition of fertile eggs is monitored. Eggs where fertility is not visible are stored in a climate chamber till hatching after about 42 days. An efficacy of 100% means all eggs are infertile; 0% means all eggs are fertile.

[3] = tested on: adult unfed cat fleas (Ctenocephalides felis); test: Ctenocephalides felis oral test; details: 48 h, 100 ppm in cattle blood, after 2 days
Procedure: Ctenocephalides felis—Oral Test
as §1
To produce a suitable preparation of active compound, 10 mg of active compound are dissolved in 0.5 mL solvent, and the concentrate is diluted with cattle blood to the desired concentration.
Approximately 20 adult unfed cat fleas (Ctenocephalides felts) are placed in flea chambers. The blood chamber, sealed with parafilm on the bottom, are filled with cattle blood supplied with compound solution and placed on the gauze covered top of the flea chamber, so that the fleas are able to suck the blood. The blood chamber is heated to 37° C. whereas the flea chamber is kept at room temperature.
After 2 days mortality in % is determined. 100% means all the fleas have been killed; 0% means none of the fleas have been killed.

[4] = tested on: adult mosquitoes Culex quinquefasciatus strain P00; test: Culex quinquefasciatus test (CULXFA surface treatment & contact assay); details: 24 hours after contact, read-out: efficacy (mortality); for mortality at 4 mg/m2: surface concentration 4 mg/m^2, 30 minutes exposure; for mortality at 20 mg/m2: surface concentration 20 mg/m^2, 30 minutes exposure
Procedure: Culex quinquefasciatus Test (CULXFA Surface Treatment & Contact Assay)
(§2) • Solvent: Aceton+2000 ppm rapeseed oil methyl ester (RME)
In order to produce a sufficient, active ingredient containing solution it is necessary to solve the test compound in the solvent-mix (acetone at 2 mg/ml/RME 2 000 ppm). This solution is pipetted onto a glazed tile and after evaporation of the acetone, adult mosquitoes of the species Culex Quinquefasciatus strain P00 are placed onto the dried surface. The exposure time is 30 minutes. Mortality in percent (%) is determined 24 hours after contact of the insects to the treated surface. 100% mortality means that all tested insects are dead, whereas 0% means that no insect died.

[5] = tested on: larvae of the banded cucumber beetle (Diabrotica balteata); test: Diabrotica balteata spray test; details: 168 h, after 7 days, wheat seeds, read-out: efficacy (seedling growth); for pest or weed control at 32 µg/disc, 100 g/ha: 100 g/ha (=32 μg/well)
Procedure: Diabrotica balteata—Spray Test
(§3) • Solvent: 78.0 parts by weight of acetone • 1.5 parts by weight of dimethylformamide • Emulsifier: alkylarylpolyglycol ether
(§4) To produce a suitable preparation of active compound, 1 part by weight of active compound is mixed with the stated amount of solvent, and the concentrate is diluted with water, containing an emulsifier concentration of 1000 ppm, to the desired concentration. Further test concentrations are prepared by dilution with emulsifier containing water.
Soaked wheat seeds (Triticum aestivum) are placed in a multiple well plate filled with agar and some water and are incubated for 1 day to germinate (5 seeds per well). The germinated wheat seeds are sprayed with a test solution containing the desired concentration of the active ingredient. Afterwards each unit is infected with 10-20 larvae of the banded cucumber beetle (Diabrotica balteata).
After 7 days efficacy in % is determined. 100% means all the seedlings have grown up like in the untreated, uninfected control; 0% means none of the seedlings have grown.

[6] = tested on: adult flies Musca domestica strain WHO-N; test: Musca domestica test (MUSCDO surface treatment & contact assay); details: 24 hours after contact, read-out: efficacy (mortality); for mortality at 4 mg/m2: surface concentration 4 mg/m^2, 30 minutes exposure; for mortality at 20 mg/m2: surface concentration 20 mg/m^2, 30 minutes exposure
Procedure: Musca domestica Test (MUSCDO Surface Treatment & Contact Assay)
as §2
In order to produce a sufficient, active ingredient containing solution it is necessary to solve the test compound in the solvent-mix (acetone at 2 mg/ml/RME 2000 ppm). This solution is pipetted onto a glazed tile and after evaporation of the acetone, adult flies of the species Musca domestica strain WHO-N are placed onto the dried surface. The exposure time is 30 minutes.
(§5) Mortality in percent (%) is determined 24 hours after contact of the insects to the treated surface. 100% mortality means that all tested insects are dead, whereas 0% means that no insect died.

[7] = tested on: fall armyworm larvae (Spodoptera frugiperda); test: Spodoptera frugiperda spray test; details: in Zea mays, 168 h
Procedure: Spodoptera frugiperda—Spray Test
(§6) • Solvent: 78.0 parts by weight acetone • 1.5 parts by weight dimethylformamide • Emulsifier: alkylarylpolyglycol ether
(§7) To produce a suitable preparation of active compound, 1 part by weight of active compound is mixed with the stated amount of solvents and is diluted with water, containing an emulsifier concentration of 1000 ppm, to the desired concentration. Further test concentrations are prepared by dilution with emulsifier containing water.
Maize (Zea mays) leaf sections are sprayed with a preparation of the active ingredient of the desired concentration. Once dry, the leaf sections are infested with fall armyworm larvae (Spodoptera frugiperda). After 7 days mortality in % is determined. 100% means all caterpillars have been killed and 0% means none of the caterpillars have been killed.

[8] = tested on: adult mosquitoes Aedes aegypti strain MONHEIM; test: Aedes aegypti test (AEDSAE surface treatment & contact assay); details: 24 hours after contact, read-out: efficacy (mortality); for mortality at 4 mg/m2: surface concentration 4 mg/m^2, 30 minutes exposure; for mortality at 20 mg/m2: surface concentration 20 mg/m^2, 30 minutes exposure
Procedure: Aedes aegypti Test (AEDSAE Surface Treatment & Contact Assay)
as §2
In order to produce a sufficient, active ingredient containing solution it is necessary to solve the test compound in the solvent-mix (acetone at 2 mg/ml/RME 2000 ppm). This solution is pipetted onto a glazed tile and after evaporation of the acetone, adult mosquitoes of the species Aedes aegypti strain MONHEIM are placed onto the dried surface. The exposure time is 30 minutes.
as §5

[9] = tested on: green peach aphid (Myzus persicae); test: Myzus persicae spray test; details: foliar, 120 h, after 5 days, Chinese cabbage leaf disks
Procedure: Myzus persicae—Spray Test
as §6, §7
Chinese cabbage (Brassica pekinensis) leaf disks infected with all instars of the green peach aphid (Myzus persicae), are sprayed with a preparation of the active ingredient of the desired concentration.
After 5 days mortality in % is determined. 100% means all aphids have been killed and 0% means none of the aphids have been killed.

[10] = tested on: larvae of the southern green stink bug (Nezara viridula); test: Nezara viridula spray test; details: 96 h, after 4 days, barley plants
Procedure: Nezara viridula—Spray Test
as §3, §4
Barley plants (Hordeum vulgare) are sprayed with a test solution containing the desired concentration of the active ingredient and are infested with larvae of the southern green stink bug (Nezara viridula).
After 4 days mortality in % is determined. 100% means all the stink bugs have been killed; 0% means none of the stink bugs have been killed.

Row | SMILES | pest or weed control at 5 µg/cm2, 5 µg/cm2 [1] [%] | pest or weed control at 20 µg/tick [2] [%] | mortality at 100 ppm [3] [%] | pest or weed control at 32 µg/disc, 100 g/ha [5] [%] | mortality at 100 g/ha [9] [%] | mortality at 500 g/ha [10] [%] | pest or weed control at 4 µg/tick [2] [%] | other results
1 | CC(C#N)c1cccc(C(=O)N[C@@H](C)c2ncnn2-c2ccc(C#N)cn2)c1 (some centres unmarked) [Example I-1] | 90 | 100 | 100 | – | – | – | – | –
2 | C[C@H](NC(=O)c1cc(OC(F)(F)F)cc(C(C)(C)C#N)c1)c1ncnn1-c1ncc(C#N)s1 [Example I-43, 3-(1-Cyano-1-methyl-ethyl)-N-[(1S)-1-[2-(5-cyanothiazol-2-yl)-1,2,4-triazol-3-yl]ethyl]-5-(trifluoromethoxy)benzamide] | – | – | – | 100 | 100 | 100 | – | mortality at 4 mg/m2 [4]: 80 to 100%; mortality at 20 mg/m2 [4]: 80 to 100%; mortality at 4 mg/m2 [6]: 80 to 100%; mortality at 20 mg/m2 [6]: 80 to 100%; mortality at 100 g/ha [7]: 100%; mortality at 4 mg/m2 [8]: 80 to 100%; mortality at 20 mg/m2 [8]: 80 to 100%; mortality at 100 g/ha [10]: 100%
3 | Cc1cc(OC2CCC2)cc(C(=O)N[C@@H](C)c2ncnn2-c2ccc(C#N)cn2)c1 [Example I-5, N-{(1S)-1-[1-(5-Cyanopyridin-2-yl)-1H-1,2,4-triazol-5-yl]ethyl}-3-(cyclobutyloxy)-5-methylbenzamide] | – | 100 | 100 | – | – | – | – | pest or weed control at 160 µg/disc, 500 g/ha ([5]; 500 g/ha (=160 μg/well)): 100%
4 | C[C@H](NC(=O)c1cc(OC(F)(F)F)cc(C(C)(C)C#N)c1)c1ncnn1-c1cnc(C#N)cn1 [Example I-56] | – | – | – | 100 | 90 | 100 | – | mortality at 100 g/ha [7]: 100%; mortality at 4 mg/m2 [8]: 80 to 100%; mortality at 20 mg/m2 [8]: 80 to 100%; mortality at 100 g/ha [10]: 90%
5 | C[C@H](NC(=O)c1cc(Br)cc(C=C(Cl)Cl)c1)c1ncnn1-c1ccc(C#N)cn1 [Example I-23] | – | – | 100 | – | – | – | 100 | –
6 | C[C@H](NC(=O)c1cc(Cl)cc(Oc2ccc(Cl)cc2)c1)c1ncnn1-c1ccc(C#N)cn1 [Example I-8] | – | 100 | 90 | – | – | – | 80 | –
7 | C[C@H](NC(=O)c1cc(Cl)cc(C(C)(C)C#N)c1)c1ncnn1-c1ncc(C#N)s1 [Example I-37] | – | – | – | 100 | 90 | 100 | – | mortality at 20 mg/m2 [4]: 80 to 100%; mortality at 100 g/ha [7]: 100%
8 | Cc1cc(OCC2CC2)cc(C(=O)N[C@@H](C)c2ncnn2-c2ccc(C#N)cn2)c1 [Example I-3, N-{(1S)-1-[1-(5-Cyanopyridin-2-yl)-1H-1,2,4-triazol-5-yl]ethyl}-3-(cyclopropylmethoxy)-5-methylbenzamide] | – | 100 | 100 | – | – | – | 100 | mortality at 500 g/ha [7]: 100%
9 | C[C@H](NC(=O)c1cc(OC(F)(F)F)cc(C(C)(C)C#N)c1)c1ncnn1-c1ccc(C#N)cn1 [Example I-45] | 100 | – | – | 100 | 90 | 100 | – | mortality at 4 mg/m2 [4]: 80 to 100%; mortality at 20 mg/m2 [4]: 80 to 100%; mortality at 4 mg/m2 [6]: 80 to 100%; mortality at 20 mg/m2 [6]: 80 to 100%; mortality at 4 mg/m2 [8]: 80 to 100%; mortality at 20 mg/m2 [8]: 80 to 100%; mortality at 100 g/ha [10]: 100%
10 | C[C@H](NC(=O)c1cc(Cl)cc(Cn2cc(C(F)(F)F)cn2)c1)c1ncnn1-c1ccc(C#N)cn1 [Example I-10] | – | 100 | 100 | – | – | – | 100 | –
11 | C[C@H](NC(=O)c1cccc(CC#N)c1)c1ncnn1-c1ccc(C#N)cn1 [Example I-2] | 80 | 100 | 100 | – | – | – | 100 | –
12 | Cc1nc([C@H](C)NC(=O)c2cc(OCC3CCOCC3)cc(C(F)(F)F)c2)n(-c2ccc(C#N)cn2)n1 [Example I-19, N-{(1S)-1-[1-(5-Cyanopyridin-2-yl)-3-methyl-1H-1,2,4-triazol-5-yl]ethyl}-3-(tetrahydro-2H-pyran-4-ylmethoxy)-5-(trifluoromethyl)benzamide] | 100 | – | 80 | – | – | – | 100 | –

Source: patent US12653190B2, “Heteroaryl-triazole compounds as pesticides” (Bayer Aktiengesellschaft, priority 2020, dated 2026)
